Measured values from ChEMBL document CHEMBL3885861, “Open TG-GATES”.

Organism: Rattus norvegicus
Experiment: Open TG-GATES - Regimen: Daily Repeat
Assay type: toxicity, organism-based, Sprague-Dawley
Parameters: regimen Daily Repeat, gender Male, age 6 weeks
Conditions: in vivo, po, 0 mg/kg, route gavage, dose level Control; for APTT / Bas / Eos / Fbg / Hb / Ht / Lym / MCH / MCHC / MCV / Mono / Neu / PT / Plat / RBC / Ret / WBC: tissue Blood; for KIDNEY_L / KIDNEY_R / KIDNEY_TOTAL: tissue Kidney; for LIVER: tissue Liver; for A/G / ALP / ALT / AST / BUN / CRE / Ca / Cl / DBIL / GLC / IP / K / LDH / Na / PL / RALB / TBIL / TC / TG / TP / gamma-GTP: tissue Plasma

## COc1ccc(Cl)cc1C(=O)NCCc1ccc(S(=O)(=O)NC(=O)NC2CCCCC2)cc1 [GLYBURIDE]
72 h, time 3 day
  TERMINAL_BW: 234.5 g
  APTT: 19.1 s
  Bas: 0%
  Eos: 0.8%
  Fbg: 225.4 mg/dL
  Hb: 13.3 g/dL
  Ht: 39.9%
  Lym: 81.6%
  MCH: 21.1 pg
  MCHC: 33.2%
  MCV: 63.5 fL
  Mono: 2.6%
  Neu: 14.6%
  PT: 12.1 s
  Plat: 124.6 x10_4/uL
  RBC: 628.4 x10_4/ul
  Ret: 6.8%
  WBC: 86.4 x10_2/uL
  KIDNEY_L: 1 g
  KIDNEY_R: 1 g
  KIDNEY_TOTAL: 2 g
  LIVER: 11.7 g
  A/G: 1.7
  ALP: 939.6 IU/L
  ALT: 43.2 IU/L
  AST: 66.4 IU/L
  BUN: 15.2 mg/dL
  CRE: 0.4 mg/dL
  Ca: 10.9 mg/dL
  Cl: 102.4 meq/L
  DBIL: 0.1 mg/dL
  GLC: 207 mg/dL
  IP: 7.4 mg/dL
  K: 4.2 meq/L
  LDH: 159.2 IU/L
  Na: 141 meq/L
  PL: 160.2 mg/dL
  RALB: 3.5 g/dL
  TBIL: 0.2 mg/dL
  TC: 86 mg/dL
  TG: 92.6 mg/dL
  TP: 5.6 g/dL
  gamma-GTP: 1.4 IU/L
[…], time 7 day
  TERMINAL_BW: 268.9 g
  APTT: 18.2 s
  Bas: 0%
  Eos: 0.8%
  Fbg: 217.8 mg/dL
  Hb: 13.7 g/dL
  Ht: 40.6%
  Lym: 79.8%
  MCH: 21.2 pg
  MCHC: 33.7%
  MCV: 63 fL
  Mono: 2.8%
  Neu: 16.2%
  PT: 12.4 s
  Plat: 121.3 x10_4/uL
  RBC: 644.2 x10_4/ul
  Ret: 5.5%
  WBC: 115 x10_2/uL
  KIDNEY_L: 1.2 g
  KIDNEY_R: 1.2 g
  KIDNEY_TOTAL: 2.3 g
  LIVER: 12.7 g
  A/G: 1.5
  ALP: 926.8 IU/L
  ALT: 36.6 IU/L
  AST: 59.8 IU/L
  BUN: 16.8 mg/dL
  CRE: 0.4 mg/dL
  Ca: 10.8 mg/dL
  Cl: 102.8 meq/L
  DBIL: 0.1 mg/dL
  GLC: 217 mg/dL
  IP: 7.3 mg/dL
  K: 3.9 meq/L
  LDH: 129.6 IU/L
  Na: 141.6 meq/L
  PL: 152 mg/dL
  RALB: 3.3 g/dL
  TBIL: 0.2 mg/dL
  TC: 71.6 mg/dL
  TG: 128.2 mg/dL
  TP: 5.5 g/dL
  gamma-GTP: 1 IU/L
[…], time 14 day
  TERMINAL_BW: 320.1 g
  APTT: 21.1 s
  Bas: 0%
  Eos: 0.6%
  Fbg: 223.6 mg/dL
  Hb: 14.1 g/dL
  Ht: 41%
  Lym: 79.8%
  MCH: 20.1 pg
  MCHC: 34.3%
  MCV: 58.5 fL
  Mono: 2.6%
  Neu: 16.4%
  PT: 12.2 s
  Plat: 122.3 x10_4/uL
  RBC: 701 x10_4/ul
  Ret: 4.3%
  WBC: 124.8 x10_2/uL
  KIDNEY_L: 1.2 g
  KIDNEY_R: 1.3 g
  KIDNEY_TOTAL: 2.5 g
  LIVER: 14 g
  A/G: 1.5
  ALP: 785.6 IU/L
  ALT: 36.2 IU/L
  AST: 62.6 IU/L
  BUN: 14 mg/dL
  CRE: 0.5 mg/dL
  Ca: 10.7 mg/dL
  Cl: 102.6 meq/L
  DBIL: 0.1 mg/dL
  GLC: 199.8 mg/dL
  IP: 6.6 mg/dL
  K: 4 meq/L
  LDH: 154.6 IU/L
  Na: 140.4 meq/L
  PL: 155.2 mg/dL
  RALB: 3.6 g/dL
  TBIL: 0.2 mg/dL
  TC: 74.6 mg/dL
  TG: 104.8 mg/dL
  TP: 6 g/dL
  gamma-GTP: 1.2 IU/L
[…], time 28 day
  TERMINAL_BW: 406.6 g
  APTT: 19.9 s
  Bas: 0%
  Eos: 1%
  Fbg: 211 mg/dL
  Hb: 15.1 g/dL
  Ht: 43.1%
  Lym: 83.8%
  MCH: 20.1 pg
  MCHC: 35.1%
  MCV: 57.2 fL
  Mono: 2%
  Neu: 12.8%
  PT: 12.3 s
  Plat: 100.6 x10_4/uL
  RBC: 753.2 x10_4/ul
  Ret: 2.8%
  WBC: 133.4 x10_2/uL
  KIDNEY_L: 1.3 g
  KIDNEY_R: 1.4 g
  KIDNEY_TOTAL: 2.7 g
  LIVER: 17.3 g
  A/G: 1.5
  ALP: 561.8 IU/L
  ALT: 31.4 IU/L
  AST: 60 IU/L
  BUN: 16.8 mg/dL
  CRE: 0.5 mg/dL
  Ca: 10.5 mg/dL
  Cl: 103.8 meq/L
  DBIL: 0.1 mg/dL
  GLC: 214 mg/dL
  IP: 6.6 mg/dL
  K: 3.9 meq/L
  LDH: 143.2 IU/L
  Na: 141.2 meq/L
  PL: 143.8 mg/dL
  RALB: 3.5 g/dL
  TBIL: 0.2 mg/dL
  TC: 75.4 mg/dL
  TG: 91.2 mg/dL
  TP: 5.9 g/dL
  gamma-GTP: 0.8 IU/L
